{
  "source": "patent US10888575B2",
  "about": "“Combination comprising zidovudine and a carbapenem” (HELPERBY THERAPEUTICS LIMITED, priority 2016, dated 2021)",
  "format_in_all_cases": "cell-based",
  "key": {"[1]": {"tested_on": "log phase NDM-1 Klebsiella pneumoniae subsp. pneumoniae (BAA2472)", "test": "chequerboard method, zidovudine and meropenem", "parameters": "scale not given here", "method": "The chequerboard method used in Example 1 followed the protocols detailed in Antimicrob Chemo (2013) 68, 374-384.\nLog phase growth of NDM-1 Klebsiella pneumoniae subsp. pneumoniae was carried out as described in the art. Zidovudine and meropenem were obtained from commercially available sources. The effects of the combination of the present invention were examined by calculating the fractional inhibitory concentration index (FICI) of each combination, as follows:\n(MIC of drug A, tested in combination)/(MIC of drug A, tested alone)+(MIC of drug B, tested in combination)/(MIC of drug B, tested alone).\nThe interaction of the combination was defined as showing synergy if the FICI was ≤0.5, no interaction if the FICI was >0.5 but <4.0 and antagonism if the FICI was >4.0."}, "[2]": {"tested_on": "log phase NDM-1 Escherichia coli (BAA2471)", "test": "time-kill, zidovudine and meropenem", "settings": "24 hours", "method": "(§1) As described hereinabove, time-kill methods are another accepted test for ascertaining the presence or absence of synergy, and involve comparing the dynamic effect of a drug combination with each drug alone when assessing the effect on bacterial log or stationary-growth over time.\n(§2) • 1. Bacterial strain used: BAA2471 or BAA2469 strain of Escherichia coli • 2. Growth of bacteria: Log phase growth of BAA2471 or BAA2469 was carried out according to known methods in the art, e.g. SOP R-005-00 Log Phase Growth of Bacteria. • 3. Compound preparation: zidovudine and mereopenem were both obtained from commercial sources (e.g. Sigma-Aldrich). • 4. The overnight culture was diluted with nutrient broth (Oxoid) to 10^7 CFU/ml and 280 μl and 290 μl of the culture was added to each combination well and drug respectively, to make the final concentration of 300 μl. • 5. Incubation of the compounds with the bacterial suspension was carried out for 24 hours. At 0, 2, 4, 7 and 24 hours, CFU counts were performed to measure the kill effects of the drug combination. Results and Discussion"}, "[3]": {"tested_on": "log phase NDM-1 Escherichia coli (BAA2469)", "test": "time-kill, zidovudine and meropenem", "settings": "24 hours", "method": "as §1, §2"}, "[4]": {"tested_on": "log phase NDM-1 Klebsiella pneumoniae (BAA2470)", "test": "chequerboard method, zidovudine, meropenem and colistimethate sodium", "parameters": "chequerboard reading: scale not given here", "method": "The chequerboard method used in Example 1 was followed, according to the protocols detailed in Antimicrob Chemo (2013) 68, 374-384. The bacterial strain of NDM-1 Klebsiella pneumoniae was BAA2470. Log phase growth of BAA2470 was carried out as described in the art. Zidovudine, meropenem and colistimethate sodium were obtained from commercially available sources. The effects of the triple combination of the present invention were examined by calculating the MIC for each drug alone and in combination."}, "[5]": {"tested_on": "log phase NDM-1 K. pneumoniae subsp. pneumoniae (BAA2470)", "test": "time-kill, zidovudine, meropenem and CMS", "method": "as §2, with “BAA2470” for “BAA2471 or BAA2469”, “K. pneumoniae subsp. pneumoniae” for “Escherichia coli”, “zidovudine, mereopenem” for “zidovudine”, “colistimethate sodium” for “mereopenem”, “were” for “were both”, “combination.” for “combination. Results and Discussion”"}, "[6]": {"settings": "zidovudine added at 0.25 μg/ml to the meropenem and CMS combination"}},
  "note": "Where two headings read alike, the source gives them in different places.",
  "data": [
    {"compound": "Cc1cn([C@H]2C[C@H](N=[N+]=[N-])[C@@H](CO)O2)c(=O)[nH]c1=O", "note": "[zidovudine, 1-[(2R,4S, 5S)-4-Azido-5-(hydroxymethyl)oxolan-2-yl]-5-methylpyrimidine-2,4-dione]", "values": [
      {"measurement": "chequerboard reading", "setting": "[1]; zidovudine 0.5, meropenem 0", "value": 0.16},
      {"measurement": "chequerboard reading", "setting": "[1]; zidovudine 1, meropenem 0", "value": 0.22},
      {"measurement": "chequerboard reading", "setting": "[1]; zidovudine 2, meropenem 0", "value": 0.10},
      {"measurement": "chequerboard reading", "setting": "[1]; zidovudine 4, meropenem 0", "value": 0.23},
      {"measurement": "chequerboard reading", "setting": "[1]; zidovudine 8, meropenem 0", "value": 0.23},
      {"measurement": "chequerboard reading", "setting": "[1]; zidovudine 16, meropenem 0", "value": 0.04},
      {"measurement": "chequerboard reading", "setting": "[1]; zidovudine 32, meropenem 0", "value": 0.26},
      {"measurement": "time-kill effect", "setting": "[2]; zidovudine alone 32 mg/L", "value": "little or no effect"},
      {"measurement": "time-kill effect", "setting": "[3]; zidovudine alone 16 mg/L", "value": "little or no effect"},
      {"measurement": "chequerboard reading", "setting": "[4]; meropenem 0, CMS 0, zidovudine 0.25 μg/ml", "value": 0.31},
      {"measurement": "chequerboard reading", "setting": "[4]; meropenem 0, CMS 0, zidovudine 0.50 μg/ml", "value": 0.17},
      {"measurement": "chequerboard reading", "setting": "[4]; meropenem 0, CMS 0, zidovudine 1 μg/ml", "value": 0.11},
      {"measurement": "chequerboard reading", "setting": "[4]; meropenem 0, CMS 0, zidovudine 2 μg/ml", "value": 0.08},
      {"measurement": "kill of the bacterium", "setting": "[5]; zidovudine alone 16 μg/ml, at 2 hours, then growth occurred", "value": "one"}
    ]},
    {"compound": "colistimethate sodium", "values": [
      {"measurement": "chequerboard reading", "setting": "[4]; meropenem 0, CMS 0.031, zidovudine 0 μg/ml", "value": 0.66},
      {"measurement": "chequerboard reading", "setting": "[4]; meropenem 0, CMS 0.063, zidovudine 0 μg/ml", "value": 0.61},
      {"measurement": "chequerboard reading", "setting": "[4]; meropenem 0, CMS 0.125, zidovudine 0 μg/ml", "value": 0.58},
      {"measurement": "chequerboard reading", "setting": "[4]; meropenem 0, CMS 0.25, zidovudine 0 μg/ml", "value": 0.50},
      {"measurement": "chequerboard reading", "setting": "[4]; meropenem 0, CMS 0.5, zidovudine 0 μg/ml", "value": 0.51},
      {"measurement": "chequerboard reading", "setting": "[4]; meropenem 0, CMS 1, zidovudine 0 μg/ml", "value": 0.47},
      {"measurement": "chequerboard reading", "setting": "[4]; meropenem 0, CMS 2, zidovudine 0 μg/ml", "value": 0.46},
      {"measurement": "chequerboard reading", "setting": "[4]; meropenem 0, CMS 4, zidovudine 0 μg/ml", "value": 0.42},
      {"measurement": "chequerboard reading", "setting": "[4]; meropenem 0, CMS 8, zidovudine 0 μg/ml", "value": 0.42},
      {"measurement": "chequerboard reading", "setting": "[4]; meropenem 0, CMS 16, zidovudine 0 μg/ml", "value": 0.23},
      {"measurement": "chequerboard reading", "setting": "[4]; meropenem 0, CMS 32, zidovudine 0 μg/ml", "value": 0.05},
      {"measurement": "MIC", "setting": "[4]; without zidovudine", "value": 32, "unit": "µg/mL"},
      {"measurement": "MIC", "setting": "[4]; [6]", "value": 8, "unit": "µg/mL"},
      {"measurement": "MIC", "setting": "[4]; zidovudine added at 0.5 μg/ml to the meropenem and CMS combination", "value": 0.5, "unit": "µg/mL"},
      {"measurement": "MIC", "setting": "[4]; zidovudine added at 1 μg/ml to the meropenem and CMS combination", "value": 0.25, "unit": "µg/mL"},
      {"measurement": "time-kill effect", "setting": "[5]; CMS alone 4 ug/ml", "value": "no effect"}
    ]},
    {"compound": "C[C@@H](O)[C@H]1C(=O)N2C(C(=O)O)=C(S[C@@H]3CN[C@H](C(=O)N(C)C)C3)[C@H](C)[C@H]12", "note": "[meropenem]", "values": [
      {"measurement": "chequerboard reading", "setting": "[1]; zidovudine 0, meropenem 0.25", "value": 0.40},
      {"measurement": "chequerboard reading", "setting": "[1]; zidovudine 0, meropenem 0.5", "value": 0.41},
      {"measurement": "chequerboard reading", "setting": "[1]; zidovudine 0, meropenem 1", "value": 0.45},
      {"measurement": "chequerboard reading", "setting": "[1]; zidovudine 0, meropenem 2", "value": 0.35},
      {"measurement": "chequerboard reading", "setting": "[1]; zidovudine 0, meropenem 4", "value": 0.34},
      {"measurement": "chequerboard reading", "setting": "[1]; zidovudine 0, meropenem 8", "value": 0.44},
      {"measurement": "chequerboard reading", "setting": "[1]; zidovudine 0, meropenem 16", "value": 0.44},
      {"measurement": "chequerboard reading", "setting": "[1]; zidovudine 0, meropenem 32", "value": 0.25},
      {"measurement": "chequerboard reading", "setting": "[1]; zidovudine 0, meropenem 64", "value": 0.21},
      {"measurement": "chequerboard reading", "setting": "[1]; zidovudine 0, meropenem 128", "value": 0.20},
      {"measurement": "chequerboard reading", "setting": "[1]; zidovudine 0, meropenem 256", "value": 0.05},
      {"measurement": "time-kill effect", "setting": "[2]; meropenem alone 256 mg/L", "value": "little or no effect"},
      {"measurement": "time-kill effect", "setting": "[3]; meropenem alone 8 mg/L", "value": "little or no effect"},
      {"measurement": "MIC", "setting": "[4]; Klebsiella pneumoniae, BAA2470", "value": 256, "unit": "µg/mL"},
      {"measurement": "MIC", "setting": "[4]; Klebsiella pneumoniae, BAA2470, zidovudine added at 0.5 μg/ml to the meropenem and CMS combination, read-out: MIC", "value": 64, "unit": "µg/mL"},
      {"measurement": "MIC", "setting": "[4]; Klebsiella pneumoniae, BAA2470, zidovudine added at 1 μg/ml to the meropenem and CMS combination, read-out: MIC", "value": 16, "unit": "µg/mL"},
      {"measurement": "chequerboard reading", "setting": "[4]; meropenem 8, CMS 0, zidovudine 0 μg/ml", "value": 0.69},
      {"measurement": "chequerboard reading", "setting": "[4]; meropenem 16, CMS 0, zidovudine 0 μg/ml", "value": 0.70},
      {"measurement": "chequerboard reading", "setting": "[4]; meropenem 32, CMS 0, zidovudine 0 μg/ml", "value": 0.63},
      {"measurement": "chequerboard reading", "setting": "[4]; meropenem 64, CMS 0, zidovudine 0 μg/ml", "value": 0.55},
      {"measurement": "chequerboard reading", "setting": "[4]; meropenem 128, CMS 0, zidovudine 0 μg/ml", "value": 0.36},
      {"measurement": "chequerboard reading", "setting": "[4]; meropenem 256, CMS 0, zidovudine 0 μg/ml", "value": 0.05},
      {"measurement": "chequerboard reading", "setting": "[4]; meropenem 512, CMS 0, zidovudine 0 μg/ml", "value": 0.05},
      {"measurement": "MIC", "setting": "[4]; [6]", "value": "remained the same"},
      {"measurement": "kill of the bacterium", "setting": "[5]; meropenem alone 64 μg/ml, at 4 hours, followed by a regrowth", "value": "about 3 logs"}
    ]}
  ]
}
